The source of these data is US11242337B2, “Compounds useful for treating gastrointestinal tract disorders” (Ardelyx, Inc., priority 2017, dated 2022).

The assay deals with human duodenum monolayer culture. The assay can be described thus: Increased trans-epithelial resistance (TEER) in human organoid monolayer cell cultures. Format: cell-based. Particulars: 1 μM apical, baseline corrected. On the procedure:
Basal media (B consisted of advanced DMEM/F12 containing 10 mM HEPES (Invitrogen, 15630-080), 1:100 Glutamax (Invitrogen, 35050-061), and 1:100 penicillin/streptomycin (Invitrogen, 15140-122). Supplemented basal media (SBM) contained 1:100 N2 (Invitrogen, 17502-048), 1:50 B27 (Invitrogen, 12587-010), 1 mM N-acetylcysteine (Sigma, A9165), and 10 nM [Leu15]-gastrin I (Sigma, G9145). Growth factors used included 50 ng per mL mouse EGF (Peprotech, 315-09), 100 ng per mL mouse noggin (Peprotech, 250-38), 500 ng per mL human R-spondin 1 (R&D, 4645-RS), 100 ng per mL mouse Wnt-3a (R&D, 1324-WN), 20 μM Y-27632 (Tocris, 1254), 10 mM nicotinamide (Sigma, N0636), 500 nM A83-01 (Tocris, 2939), 10 μM SB202190 (Tocris, 1264). Transwells were 0.4 μm pore polyester membrane 24-well Transwell inserts (Corning). Cultures were incubated at 37° C. in 5% CO2.
Human duodenum organoids were cultured in WENRNAS (Wnt, EGF, noggin, R-spondin1, Nicotinamide, A83-01, SB202190) and typically grown for 7-12 days before being used to plate monolayer cultures. On day 0, organoid cultures embedded in Matrigel were treated with TrypLE Express to break organoids into small pieces and/or single cells. The cells were resuspended to 0.5×10^6 cells/mL in SBM containing WENRAY (Wnt, EGF, noggin, R-spondin1, A83-01, Y-27632). Following this step, 200 μL of cell suspension was plated into the apical side of a 24-well Transwell (100,000 cells/well) and 600 μL of SBM with WENRAY was added to the basolateral side. Duodenum cells were differentiated with ENA (EGF, noggin, A83-01) on day 3. The color of apical compartment turns from pink or orange to yellow due to the increase in NHE3 expression after differentiation.
Each human duodenum monolayer culture well was washed twice with fresh SBM on the apical side on day 6 or day 7 before dosing. All compound stocks were 10 mM dissolved DMSO. Each compound stock was individually mixed with fresh SBM to reach final compound concentration 1 μM and dosed only on the apical side of the monolayer (total volume 200 μl). DMSO at the equivalent concentration was used as the vehicle control. Duplicate wells were dosed for each compound. Transepithelial electrical resistance (TEER) was used as a quantitative technique to measure of tight junction permeability. TEER values were recorded (MERS00002, Millipore) before dosing and 30 mins and 1 hr after dosing for all wells. Each of the duplicate TEER values following treatment were corrected for the individual well baseline TEER. Baseline corrected TEER for each example compound was compared to the average of the DMSO wells and expressed as a percent TEER of vehicle control.

[1] abbreviates: 1 hr after dosing, read-out: TEER at 60 minutes (% of Vehicle).
Where [2] appears, read: 0.5 h, 30 mins after dosing, read-out: TEER at 30 minutes (% of Vehicle).

Each structure is given as a SMILES string. Like-named read-outs stand apart in the source and are kept apart here.

In the case of `Cc1cc(Cl)cc2c1C[C@H](N1CCC[C@@H](N(C)C)C1)[C@H]2Oc1ccc(S(=O)(=O)NCCOCCOCCNC(=O)NCCCCNC(=O)NCCOCCOCCNS(=O)(=O)c2ccc(O[C@H]3c4cc(Cl)cc(C)c4C[C@@H]3N3CCC[C@@H](N(C)C)C3)c(F)c2)cc1F` [Example 30, 3-[2-(2-[2-[(4-[[(1S,2S)-6-Chloro-2-[(3R)-3-(dimethylamino)piperidin-1-yl]-4-methyl-2,3-dihydro-1H-inden-1-yl]oxy]-3-fluorobenzene)sulfonamido]ethoxy]ethoxy)ethyl]-1-[4-([[2-(2-[2-[(4-[[(1S,2S)-6-chloro-2-[(3R)-3-(dimethylamino)piperidin-1-yl]-4-methyl-2,3-dihydro-1H-inden-1-yl]oxy]-3-fluorobenzene)sulfonamido]ethoxy]ethoxy)ethyl]carbamoyl]amino)butyl]urea; bis(trifluoroacetic acid)], the activity at 1 µM was in the range of 100 to 130% under setting [1] and 100 to 130% under setting [2].

Regarding `O=C(NCCCCNC(=O)NCCOCCN1CC[C@H](NS(=O)(=O)c2ccc(O[C@H]3c4cc(Cl)cc(Cl)c4C[C@@H]3N3CCNCC3)c(F)c2)C1)NCCOCCN1CC[C@H](NS(=O)(=O)c2ccc(O[C@H]3c4cc(Cl)cc(Cl)c4C[C@@H]3N3CCNCC3)c(F)c2)C1` [Example 106, 4-([(1S,2S)-4,6-Dichloro-2-(piperazin-1-yl)-2,3-dihydro-1H-inden-1-yl]oxy)-N—[(S)-1-(20-[(S)-3-([4-([(1S,2S)-4,6-dichloro-2-(piperazin-1-yl)-2,3-dihydro-1H-inden-1-yl]oxy)-3-fluorophenyl]sulfonamido)pyrrolidin-1-yl]-7,14-dioxo-3,18-dioxa-6,8,13,15-tetraazaicosyl)pyrrolidin-3-yl]-3-fluorobenzenesulfonamide; tetra(trifluoroacetate)], the activity at 1 µM was over 130% under setting [1] and over 130% under setting [2].

`Cc1cc(S(=O)(=O)NCCOCCOCCNC(=O)NCCCCNC(=O)NCCOCCOCCNS(=O)(=O)c2ccc(O[C@H]3c4cc(Cl)cc(C#N)c4C[C@@H]3N3CCNCC3)c(C)c2)ccc1O[C@H]1c2cc(Cl)cc(C#N)c2C[C@@H]1N1CCNCC1` [Example 42, 3-[2-(2-[2-[(4-[[(1S,2S)-6-Chloro-4-cyano-2-(piperazin-1-yl)-2,3-dihydro-1H-inden-1-yl]oxy]-3-methylbenzene)sulfonamido]ethoxy]ethoxy)ethyl]-1-[4-([[2-(2-[2-[(4-[[(1S,2S)-6-chloro-4-cyano-2-(piperazin-1-yl)-2,3-dihydro-1H-inden-1-yl]oxy]-3-methylbenzene)sulfonamido]ethoxy]ethoxy)ethyl]carbamoyl]amino)butyl]urea; bis(trifluoroacetic acid)]: the activity at 1 µM runs as follows: under setting [1], over 130%; under setting [2], 100 to 130%.

`Cc1cc(Cl)cc2c1C[C@H](N(C)C)[C@H]2Oc1ccc(S(=O)(=O)NCCOCCOCCNC(=O)NCCCCNC(=O)NCCOCCOCCNS(=O)(=O)c2ccc(O[C@H]3c4cc(Cl)cc(C)c4C[C@@H]3N(C)C)c(F)c2)cc1F` [Example 24, 3-[2-(2-[2-[(4-[[(1S,2S)-6-Chloro-2-(dimethylamino)-4-methyl-2,3-dihydro-1H-inden-1-yl]oxy]-3-fluorobenzene)sulfonamido]ethoxy]ethoxy)ethyl]-1-[4-([[2-(2-[2-[(4-[[(1S,2S)-6-chloro-2-(dimethylamino)-4-methyl-2,3-dihydro-1H-inden-1-yl]oxy]-3-fluorobenzene)sulfonamido]ethoxy]ethoxy)ethyl]carbamoyl]amino)butyl]urea]: the activity at 1 µM was 100 to 130% under setting [1] and 100 to 130% under setting [2].

With `O=C(NCCCCNC(=O)NCCOCCN1CC[C@@H](NS(=O)(=O)c2ccc(O[C@H]3c4cc(Cl)cc(Cl)c4C[C@@H]3N3CCNCC3)c(F)c2)C1)NCCOCCN1CC[C@@H](NS(=O)(=O)c2ccc(O[C@H]3c4cc(Cl)cc(Cl)c4C[C@@H]3N3CCNCC3)c(F)c2)C1` [Example 105, 4-([(1S,2S)-4,6-Dichloro-2-(piperazin-1-yl)-2,3-dihydro-1H-inden-1-yl]oxy)-N—[(R)-1-(20-[(R)-3-([4-([(1S2S)-4,6-dichloro-2-(piperazin-1-yl)-2,3-dihydro-1H-inden-1-yl]oxy)-3-fluorophenyl]sulfonamido)pyrrolidin-1-yl]-7,14-dioxo-3,18-dioxa-6,8,13,15-tetraazaicosyl)pyrrolidin-3-yl]-3-fluorobenzenesulfonamide; tetra(trifluoroacetate)], the activity at 1 µM was over 130% under setting [1] and over 130% under setting [2].

Consider `O=C(NCCCCNC(=O)NCCOCCOCCNS(=O)(=O)c1ccc(O[C@H]2c3cc(Cl)cc(Cl)c3C[C@@H]2N2CCNCC2)c(F)c1)NCCOCCOCCNS(=O)(=O)c1ccc(O[C@H]2c3cc(Cl)cc(Cl)c3C[C@@H]2N2CCNCC2)c(F)c1` [Example 33, 3-[2-(2-[2-[(4-[[(1S,2S)-4,6-Dichloro-2-(piperazin-1-yl)-2,3-dihydro-1H-inden-1-yl]oxy]-3-fluorobenzene)sulfonamido]ethoxy]ethoxy)ethyl]-1-[4-[[(2-(2-[2-[(4-[[(1S,2S)-4,6-dichloro-2-(piperazin-1-yl)-2,3-dihydro-1H-inden-1-y]oxy]-3-fluorobenzene)sulfonamido]ethoxy]ethoxy)ethyl]carbamoyl]amino)butyl]urea; bis(trifluoroacetic acid)], for which the activity at 1 µM was over 130% under setting [1] and 100 to 130% under setting [2].

For the compound `Cc1cc(S(=O)(=O)NCCOCCOCCNC(=O)NCCCCNC(=O)NCCOCCOCCNS(=O)(=O)c2ccc(O[C@H]3c4cc(Cl)cc(Cl)c4C[C@@H]3N3CCNCC3)c(C)c2)ccc1O[C@H]1c2cc(Cl)cc(Cl)c2C[C@@H]1N1CCNCC1` [Example 32, 3-[2-(2-[2-[(4-[[(1S,2S)-4,6-Dichloro-2-(piperazin-1-yl)-2,3-dihydro-1H-inden-1-yl]oxy]-3-methylbenzene)sulfonamido]ethoxy]ethoxy)ethyl]-1-[4-([[2-(2-[2-[(4-[[(1S,2S)-4,6-dichloro-2-(piperazin-1-yl)-2,3-dihydro-1H-inden-1-yl]oxy]-3-methylbenzene)sulfonamido]ethoxy]ethoxy)ethyl]carbamoyl]amino)butyl]urea; bis(trifluoroacetic acid)], the activity at 1 µM runs as follows: under setting [1], over 130%; under setting [2], 100 to 130%.

In the case of `N#Cc1cc(Cl)cc2c1C[C@H](N1CCNCC1)[C@H]2Oc1ccc(S(=O)(=O)N[C@H]2CCN(CCOCCNC(=O)NCCCCNC(=O)NCCOCCN3CC[C@H](NS(=O)(=O)c4ccc(O[C@H]5c6cc(Cl)cc(C#N)c6C[C@@H]5N5CCNCC5)c(F)c4)C3)C2)cc1F` [Example 110, 4-([(1S,2S)-6-Chloro-4-cyano-2-(piperazin-1-yl)-2,3-dihydro-1H-inden-1-yl]oxy)-N—[(S)-1-(20-[(S)-3-[(4-([(1S,2S)-6-chloro-4-cyano-2-(piperazin-1-yl)-2,3-dihydro-1H-inden-1-yl]oxy)-3-fluorophenyl)sulfonamide)pyrrolidin-1-yl]-7,14-dioxo-3,18-dioxa-6,8,13,15-tetraazaicosyl)pyrrolidin-3-yl]-3-fluorobenzenesulfonamide; tetra(trifluoroacetate)], the activity at 1 µM is 100 to 130% under setting [1] and over 130% under setting [2].

On to `Cc1cc(S(=O)(=O)NCCOCCOCCNC(=O)NCCCCNC(=O)NCCOCCOCCNS(=O)(=O)c2ccc(O[C@H]3c4cc(Cl)cc(C)c4C[C@@H]3N(C)C)c(C)c2)ccc1O[C@H]1c2cc(Cl)cc(C)c2C[C@@H]1N(C)C` [Example 17, 3-[2-(2-[2-[(4-[[(1S,2S)-6-Chloro-2-(dimethylamino)-4-methyl-2,3-dihydro-1H-inden-1-yl]oxy]-3-methylbenzene)sulfonamido]ethoxy]ethoxy)ethyl]-1-[4-([[2-(2-[2-[(4-[[(1S,2S)-6-chloro-2-(dimethylamino)-4-methyl-2,3-dihydro-1H-inden-1-yl]oxy]-3-methylbenzene)sulfonamido]ethoxy]ethoxy)ethyl]carbamoyl]amino)butyl]urea], for which the activity at 1 µM was 100 to 130% under setting [1] and 100 to 130% under setting [2].
